Measurements reported in PMC11593814, “Novel Basidiomycetous Alcohol Oxidase from Cerrena unicolor—Characterisation, Kinetics, and Proteolytic Modifications” (International Journal of Molecular Sciences, 2024).

These molecules were tested on T1, alcohol oxidase (AOX) from Cerrena unicolor FCL139 (assay: acetylacetone assay ([…],5-diacetyl-1,4-dihydrolutidine), Michaelis-Menten non-linear fit). Settings: semi-purified native enzyme; substrate 1-100 mM; pH and temperature of the kinetics not given.
T1 construct: native, semi-purified from mycelium (ammonium sulphate, HIC, SEC); octamer stated as typical; no tag
Assay type: biochemical
In the case of `OC[C@H](O)C(O)[C@@H](O)CO` [L-arabinitol], the Km is reported as 37 ± 3 mM.
In the case of `CO` [Methanol], the Km is reported as 13 ± 1 mM.
`COc1ccc(CO)cc1OC` [Veratryl alcohol] showed a Km of 31 ± 4 mM.
